Results taken from the pKa sets of Baltruschat and Czodrowski (2020).

pKa	Compound
10.2	CCN(C)C
10.2	CCCCN(C)C
9.4	FC1CCNCC1
9.7	NCCCC(F)(F)F
7.4	FC1(F)CCCNC1
6.7	FC(F)(Cc1c[nH]c2ccc(-n3cnnc3)cc12)CN1CCC(Cc2ccccc2)CC1
8.8	FC1(Cc2ccccc2)CCN(CCCc2c[nH]c3ccc(-n4cnnc4)cc23)CC1
8.7	FC(Cc1c[nH]c2ccc(-n3cnnc3)cc12)CN1CCC(Cc2ccccc2)CC1 (stereo not drawn)
4.8	CN(C)CC(F)(F)F
8.5	FC1(F)CCNCC1
9.7	c1ccc(CC2CCN(CCCc3c[nH]c4ccc(-n5cnnc5)cc34)CC2)cc1
10.1	CN1CCCCC1

The next lines start with the compound.

Compound	pKa
CN(C)C(C)(C)CCCc1ccc(C(C)(C)C)cc1	10.4
CN(C)C	9.8
NCC(F)F	7.3
NCCCF	9.9
CN(C)CC(C)(C)CCc1ccc(C(C)(C)C)cc1	9.4
CN(C)CCCC(C)(C)c1ccc(C(C)(C)C)cc1	9.8
NCCC(F)(F)F	8.7
FC1CCCNC1 (stereo not drawn)	9.3
CC(=O)N1CCNCC1	7.9
CN(C)CCCCc1ccc(C(C)(C)C)cc1	9.9
CCCCN	10.7
